# Assay: Assay (I): Determination of Solubility (96-well plate, pH 3.0-11.0, organic solvent 0-70% w/w, UV absorption at 280 nm)
# Assay type: physicochemical
# Details: for Peptide concentration after 180 min / Peptide concentration after 24 h / Peptide concentration after 5 min: Method 1; for GLP-1 peptide concentration: Method 2 (precipitation), MeCN 57.3% w/w, 5° C.
# Description: Assay (I): Determination of Solubility
# 96-Well Plate Preparation
# 96-well plates containing target peptide in a solid form were prepared in one of two ways:
# Method 1 (evaporation): Addition of 100 μl stock solution of said peptide at a concentration of 4-6 mg/ml to each well of a 96-well half area plate (150 μl well size). Subsequently the solvent was evaporated by applying a vacuum until the solvent was completely removed.
# Method 2 (precipitation): Addition of a certain volume of a stock solution of said peptide containing to each well of a 96-well half area plate followed by the addition of a certain volume of concentrated phosphoric acid to obtain a pH of 4.6 followed by addition of a certain volume of ethanol resulting in a final ethanol concentration of 20% v/v. Subsequently the plate was stored at 4° C. for 1 h and then centrifuged at 4,000 rpm for 20 min. Finally the supernatant was removed. The concentration of the stock solution was chosen in a way that the final amount of peptide after supernatant removal was >0.4 mg per well.
# In both cases the stock solution was prepared by adding de-ionized water to a certain amount of powder of said peptide followed by a stepwise addition of small amounts of a concentrated sodium hydroxide solution until said peptide was completely in solution.
# To determine solubility of a target peptide at different pH and organic solvent concentrations, two different buffer systems were used in independent experiments to cover the whole range from pH 3.0 to pH 11.0. Buffer system 1 covers pH 3.0-7.5 and buffer system 2 covers pH 7.5-11.0. For each buffer system 96 different solvent compositions were premixed in the following way: • 1. A low pH buffer (adjusted to either pH 3.0 or pH 7.5) and a high pH buffer (adjusted to either pH 7.5 or pH 11.0) were mixed at 8 different ratios to obtain values between pH 3.0 and pH 7.5 or pH 7.5 and pH 11.0, respectively. The total volume after mixing was 300 μl. • 2. 12 different amounts of organic solvent were then added to these buffers to obtain organic solvent (e.g. ethanol) concentrations between 0 and 70% w/w. • 3. Water was then added to obtain a total weight of 1.0 g of solvent in each well.
# After preparing the 96 different solvent systems, 100 μl of each system was transferred to the 96-well plate containing the solid form of the target peptide (prepared as described in the section “96-well plate preparation”). The plate was then stored at a given temperature (between 5° C. and 70° C.) for a given time on a rotating shaker set to 400 rpm. At regular time intervals the plate was centrifuged (4,000 rpm for 10 min) and a 10 μl sample was taken from each well. The samples were then analysed by UV absorption at 280 nm for peptide quantification. Peptide concentration results are given as UV absorption at 280 nm of the sample subtracted UV absorption at 280 nm of a well comprising 10 μl water.
# The buffers used were as follows: • Buffer system 1 (for the pH range from pH 3.0-7.5)
# • Buffer system 2 (for the pH ranae from pH 7.5-11.0)
# Solubility of liraglutide was determined using Assay (I) described herein. Liraglutide was prepared using Method 1 (evaporation) or Method 2 (precipitation) as described in subsection “96-well plate preparation”.
smiles,measurement,setting,value
"CCCCCCCCCCCCCCCC(=O)N[C@@H](CCC(=O)NCCCC[C@H](NC(=O)[C@H](C)NC(=O)[C@H](C)NC(=O)[C@H](CCC(N)=O)NC(=O)CNC(=O)[C@H](CCC(=O)O)NC(=O)[C@H](CC(C)C)NC(=O)[C@H](Cc1ccc(O)cc1)NC(=O)[C@H](CO)NC(=O)[C@H](CO)NC(=O)[C@@H](NC(=O)[C@H](CC(=O)O)NC(=O)[C@H](CO)NC(=O)[C@@H](NC(=O)[C@H](Cc1ccccc1)NC(=O)[C@@H](NC(=O)CNC(=O)[C@H](CCC(=O)O)NC(=O)[C@H](C)NC(=O)[C@@H](N)Cc1cnc[nH]1)[C@@H](C)O)[C@@H](C)O)C(C)C)C(=O)N[C@@H](CCC(=O)O)C(=O)N[C@@H](Cc1ccccc1)C(=O)N[C@H](C(=O)N[C@@H](C)C(=O)N[C@@H](Cc1c[nH]c2ccccc12)C(=O)N[C@@H](CC(C)C)C(=O)N[C@H](C(=O)N[C@@H](CCCNC(=N)N)C(=O)NCC(=O)N[C@@H](CCCNC(=N)N)C(=O)NCC(=O)O)C(C)C)[C@@H](C)CC)C(=O)O [liraglutide, Arg34,Lys26-(N-epsilon-(gamma-L-glutamyl(N-alfa-hexadecanoyl)))-GLP-1(7-37)]",Peptide concentration after 180 min,"MeCN 63.6% w/w, pH 9.5, 5° C.",0.5 mg/mL
same,Peptide concentration after 24 h,"MeCN 63.6% w/w, pH 9.5, 5° C.",1.4 mg/mL
same,Peptide concentration after 5 min,"MeCN 63.6% w/w, pH 10.0, 5° C.",0.2 mg/mL
same,Peptide concentration after 180 min,"MeCN 63.6% w/w, pH 10.0, 5° C.",0.3 mg/mL
same,Peptide concentration after 24 h,"MeCN 63.6% w/w, pH 10.0, 5° C.",0.7 mg/mL
same,Peptide concentration after 5 min,"MeCN 63.6% w/w, pH 10.5, 5° C.",0.2 mg/mL
same,Peptide concentration after 180 min,"MeCN 63.6% w/w, pH 10.5, 5° C.",0.3 mg/mL
same,Peptide concentration after 24 h,"MeCN 63.6% w/w, pH 10.5, 5° C.",0.6 mg/mL
same,Peptide concentration after 5 min,"MeCN 63.6% w/w, pH 11.0, 5° C.",0.5 mg/mL
same,Peptide concentration after 180 min,"MeCN 63.6% w/w, pH 11.0, 5° C.",0.6 mg/mL
same,Peptide concentration after 24 h,"MeCN 63.6% w/w, pH 11.0, 5° C.",1.3 mg/mL
same,Peptide concentration after 5 min,"MeCN 70.0% w/w, pH 5.6, 5° C.",0.2 mg/mL
same,Peptide concentration after 180 min,"MeCN 70.0% w/w, pH 5.6, 5° C.",0.3 mg/mL
same,Peptide concentration after 24 h,"MeCN 70.0% w/w, pH 5.6, 5° C.",0.4 mg/mL
same,Peptide concentration after 5 min,"MeCN 70.0% w/w, pH 6.2, 5° C.",0.2 mg/mL
same,Peptide concentration after 180 min,"MeCN 70.0% w/w, pH 6.2, 5° C.",0.3 mg/mL
same,Peptide concentration after 24 h,"MeCN 70.0% w/w, pH 6.2, 5° C.",0.5 mg/mL
same,Peptide concentration after 5 min,"MeCN 70.0% w/w, pH 6.9, 5° C.",0.2 mg/mL
same,Peptide concentration after 180 min,"MeCN 70.0% w/w, pH 6.9, 5° C.",0.3 mg/mL
same,Peptide concentration after 24 h,"MeCN 70.0% w/w, pH 6.9, 5° C.",0.5 mg/mL
same,Peptide concentration after 5 min,"MeCN 70.0% w/w, pH 7.5, 5° C.",0.3 mg/mL
same,Peptide concentration after 180 min,"MeCN 70.0% w/w, pH 7.5, 5° C.",0.4 mg/mL
same,Peptide concentration after 24 h,"MeCN 70.0% w/w, pH 7.5, 5° C.",0.8 mg/mL
same,Peptide concentration after 5 min,"MeCN 70.0% w/w, pH 8.0, 5° C.",0.3 mg/mL
same,Peptide concentration after 180 min,"MeCN 70.0% w/w, pH 8.0, 5° C.",0.4 mg/mL
same,Peptide concentration after 24 h,"MeCN 70.0% w/w, pH 8.0, 5° C.",0.6 mg/mL
same,Peptide concentration after 5 min,"MeCN 70.0% w/w, pH 8.5, 5° C.",0.2 mg/mL
same,Peptide concentration after 180 min,"MeCN 70.0% w/w, pH 8.5, 5° C.",0.4 mg/mL
same,Peptide concentration after 24 h,"MeCN 70.0% w/w, pH 8.5, 5° C.",0.7 mg/mL
same,Peptide concentration after 5 min,"MeCN 70.0% w/w, pH 9.0, 5° C.",0.2 mg/mL
same,Peptide concentration after 180 min,"MeCN 70.0% w/w, pH 9.0, 5° C.",0.4 mg/mL
same,Peptide concentration after 24 h,"MeCN 70.0% w/w, pH 9.0, 5° C.",0.9 mg/mL
same,Peptide concentration after 5 min,"MeCN 70.0% w/w, pH 9.5, 5° C.",0.2 mg/mL
same,Peptide concentration after 180 min,"MeCN 70.0% w/w, pH 9.5, 5° C.",0.3 mg/mL
same,Peptide concentration after 24 h,"MeCN 70.0% w/w, pH 9.5, 5° C.",0.5 mg/mL
same,Peptide concentration after 5 min,"MeCN 70.0% w/w, pH 10.0, 5° C.",0.2 mg/mL
same,Peptide concentration after 180 min,"MeCN 70.0% w/w, pH 10.0, 5° C.",0.3 mg/mL
same,Peptide concentration after 24 h,"MeCN 70.0% w/w, pH 10.0, 5° C.",0.4 mg/mL
same,Peptide concentration after 5 min,"MeCN 70.0% w/w, pH 10.5, 5° C.",0.2 mg/mL
same,Peptide concentration after 180 min,"MeCN 70.0% w/w, pH 10.5, 5° C.",0.2 mg/mL
same,Peptide concentration after 24 h,"MeCN 70.0% w/w, pH 10.5, 5° C.",0.4 mg/mL
same,Peptide concentration after 5 min,"MeCN 70.0% w/w, pH 11.0, 5° C.",0.2 mg/mL
same,Peptide concentration after 180 min,"MeCN 70.0% w/w, pH 11.0, 5° C.",0.2 mg/mL
same,Peptide concentration after 24 h,"MeCN 70.0% w/w, pH 11.0, 5° C.",0.5 mg/mL
same,GLP-1 peptide concentration,"pH 9.00, 5 min, after removal of outliers",0.6 mg/mL
same,GLP-1 peptide concentration,"pH 9.00, 5 min, before removal of outliers",0.6 mg/mL
same,GLP-1 peptide concentration,"pH 9.00, 180 min, after removal of outliers",3.4 mg/mL
same,GLP-1 peptide concentration,"pH 9.00, 180 min, before removal of outliers",3.4 mg/mL
same,GLP-1 peptide concentration,"pH 9.00, 24 h, after removal of outliers",1.4 mg/mL
same,GLP-1 peptide concentration,"pH 9.00, 24 h, before removal of outliers",1.4 mg/mL
same,GLP-1 peptide concentration,"pH 9.50, 5 min, after removal of outliers",0.5 mg/mL

# — patent US20210261642A1, “SOLUBILITY OF GLP-1 PEPTIDE” (Novo Nordisk A/S, priority 2017, published 2021)
